US10562893B2, “Benzimidazoles derivatives as Tec kinases family inhibitors” (GB005, Inc., priority 2015, dated 2020)
pEC50: −log10 of the molar value.

What was measured:
ITK = ITK (Homo sapiens (Human), UniProt Q08881); assay: ITK kinase inhibition assay; format: biochemical; conditions: micro-fluidic detection, 3 hours at 25° C.
Protocol: (§1) The in vitro kinase assays were performed at Nanosyn utilizing micro-fluidic detection technology. The test compounds were serially pre-diluted in DMSO and added, by the acoustic dispensing (Labcyte® 550), directly to 384 well assay plates into 10 uL of a buffer with enzyme comprising: 100 mM HEPES, pH7.5, 5 mM MgCl2, 0.1% bovine serum albumin, 1 mM DTT, 0.01% Triton X-100 and the enzyme. Final DMSO concentration was maintained at 1% in all samples, including the controls. The reactions were initiated by addition of ATP (to the specified concentration) and the fluorescently labeled peptide substrate to a final concentration of 1 uM, and incubated for 3 hours at 25° C. Following incubation, the reactions were quenched by addition of 40 μL of termination buffer (100 mM HEPES, pH7.5, 0.01% Triton X-100, 50 mM EDTA). Terminated plates were analyzed using Caliper LabChip® 3000 microfluidic electrophoresis instrument (Caliper Life Sciences/Perkin Elmer). The enzymatic modification of the peptide substrate (phosphorylation) results in a change of net charge enabling electrophoretic separation of product from substrate. As substrate and product are separated by electrophoresis, two peaks of fluorescence are observed. Change in the relative fluorescence intensity of the substrate and product peaks was the parameter measured, reflecting enzyme activity. In the presence of inhibitor, the ratio between product and substrate is altered: signal of the product decreases, while the signal of the substrate increases. Activity in each test sample was determined as the product to sum ratio (PSR):P/(S+P), where P is the peak height of the product and S is the peak height of the FAM-cAMP substrate. For each compound, enzyme activity was measured at 12 concentrations spaced by 3× dilution intervals. Negative control samples (0%-inhibition in the absence of inhibitor, DMSO only) and positive control samples (100%-inhibition, in the absence of enzyme or in the presence of control inhibitor) were assembled in replicates of four and were used to calculate %-inhibition values in the presence of compounds. Percent inhibition (Pinh) was determined using the following equation: Pinh=(PSR0%−PSRinh)/(PSR0%−PSR100%)*100, where PSRinh is the product sum ratio in the presence of inhibitor, PSR0% is the product sum ratio in the absence of inhibitor and PSR100% is the product sum ratio in 100%-inhibition control samples. To determine IC50 values, the inhibition curves (Pinh versus inhibitor concentration) were fitted by 4 parameter sigmoid dose-response model using XLfit software (IDBS).

RLK/TXK = RLK/TXK (Homo sapiens (Human), UniProt P42681); assay: RLK/TXK kinase inhibition assay; format: biochemical; conditions: micro-fluidic detection, 3 hours at 25° C.
RLK/TXK, sequence (P42681 whole entry): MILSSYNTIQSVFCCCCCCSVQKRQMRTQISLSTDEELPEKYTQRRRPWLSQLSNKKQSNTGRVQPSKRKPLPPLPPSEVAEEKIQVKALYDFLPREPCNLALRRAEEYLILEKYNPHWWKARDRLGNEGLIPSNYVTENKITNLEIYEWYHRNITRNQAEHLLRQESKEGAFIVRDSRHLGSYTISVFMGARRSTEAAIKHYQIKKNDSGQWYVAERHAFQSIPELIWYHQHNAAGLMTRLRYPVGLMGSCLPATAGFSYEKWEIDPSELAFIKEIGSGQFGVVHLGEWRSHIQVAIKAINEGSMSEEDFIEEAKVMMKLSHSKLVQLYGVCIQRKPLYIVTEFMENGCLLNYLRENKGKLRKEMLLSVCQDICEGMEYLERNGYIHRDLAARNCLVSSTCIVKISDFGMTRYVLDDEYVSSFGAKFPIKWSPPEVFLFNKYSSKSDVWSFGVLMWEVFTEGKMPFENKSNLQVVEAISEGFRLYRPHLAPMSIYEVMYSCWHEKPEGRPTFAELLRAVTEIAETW
Protocol: as §1, with “384well” for “384 well”, “(PSR): P/(S+P),” for “(PSR):P/(S+P),”

Human PBMCs = assay: CD3/CD28 mediated PBMC proliferation assay; format: cell-based; conditions: proliferation of human PBMCs stimulated with anti-CD3 and anti-CD28, 72 hours, Cell Titer-Glo
Protocol: Inhibition of cellular ITK was assessed by measuring proliferation of PBMCs following stimulation with anti-CD3 and anti-CD28 antibodies. Individual wells of 96 well tissue culture plates were coated with 50 μL of 5 μg/mL anti-CD3 (OKT3, eBiosciences) for 2 hours at 37° C. Human PBMCs (Stemcell Technologies catalog #70025.3) were plated in 96-well plates at a final concentration of 9.2×10e5 cells/mL in complete media (RPMI, 10% heat inactivated FBS, 55 uM β-mercaptoethanol) and pre-treated with compound curves for 30 minutes at 37° C., 5% CO2. Pre-treated cells plus compounds were transferred to washed anti-CD3 coated plates. Soluble anti-CD28 (CD28.2 eBiosciences) was added to each well at a final concentration of 2 μg/mL. The cells were placed in a humidified 37° C. incubator with 5% CO2 for 72 hours and metabolic viability was measured by quantification of ATP levels with Cell Titer-Glo (Promega catalog # G9242). Controls included unstimulated cells and vehicle alone. EC50 values (50% proliferation in the presence of compound as compared to vehicle treated controls) were calculated from dose response compound curves using GraphPad Prism Software.

[1] = tested on: Jurkat human acute T cell leukemia cells; assay: Jurkat IL-2 release assay; format: cell-based; conditions: IL-2 release from Jurkat cells stimulated with anti-CD3 and anti-CD28, 48 hours, ELISA
Protocol: Inhibition of cellular ITK was assessed by measuring release of IL-2 following stimulation with anti-CD3 and anti-CD28 antibodies. Individual wells of 96 well tissue culture plates were coated with 50 μL of 10 μg/mL anti-CD3 (OKT3, eBiosciences) for 2 hours at 37° C. Jurkat human acute T cell leukemia cells (ATCC) were plated in 96-well plates at a final concentration of 9.2×10e5 cells/mL in complete media (RPMI, 10% FBS, 1.5 g/L sodium bicarbonate, 10 mM Hepes, 1 mM sodium pyruvate, 4.5 g/L glucose) and pre-treated with compound curves for 30 minutes at 37° C., 5% CO2. Pre-treated cells plus compounds were transferred to washed anti-CD3 coated plates. Soluble anti-CD28 (CD28.2 eBiosciences) was added to each well at a final concentration of 1 μg/mL. The cells were placed in a humidified 37° C. incubator with 5% CO2 for 48 hours and IL-2 release was measured using a commercial ELISA (BD Bioscience catalog #555190). Controls included unstimulated cells and vehicle alone. EC50 values (50% IL-2 release in the presence of compound as compared to vehicle treated controls) were calculated from dose response compound curves using GraphPad Prism Software.

ITK, sequence (Q08881 whole entry): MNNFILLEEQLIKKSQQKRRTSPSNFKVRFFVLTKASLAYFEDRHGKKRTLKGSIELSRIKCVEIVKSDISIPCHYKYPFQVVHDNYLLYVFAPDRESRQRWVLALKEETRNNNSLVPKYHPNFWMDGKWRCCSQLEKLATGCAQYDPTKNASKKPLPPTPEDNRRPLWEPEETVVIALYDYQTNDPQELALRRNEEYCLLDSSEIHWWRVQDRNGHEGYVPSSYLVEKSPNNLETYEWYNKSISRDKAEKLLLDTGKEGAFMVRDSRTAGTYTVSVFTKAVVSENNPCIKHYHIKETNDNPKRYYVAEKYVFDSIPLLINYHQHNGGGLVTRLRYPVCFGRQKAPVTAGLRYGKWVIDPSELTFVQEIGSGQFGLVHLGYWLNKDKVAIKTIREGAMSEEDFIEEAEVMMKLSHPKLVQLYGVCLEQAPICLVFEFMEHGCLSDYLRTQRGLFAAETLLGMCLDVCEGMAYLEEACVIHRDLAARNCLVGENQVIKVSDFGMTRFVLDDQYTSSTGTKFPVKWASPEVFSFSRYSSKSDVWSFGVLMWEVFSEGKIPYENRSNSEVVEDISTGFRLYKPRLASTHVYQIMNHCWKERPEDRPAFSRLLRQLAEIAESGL

| SMILES | pEC50 (ITK) | pEC50 (RLK/TXK) | pEC50 (Human PBMCs) | pEC50 [1] |
| --- | --- | --- | --- | --- |
| C=CC(=O)Nc1cccc(-n2c(NC(=O)c3ccc(C(F)F)s3)nc3cc(CN4CCOCC4)ccc32)c1 [Compound 50] | > 8.00 | > 8.00 | > 8.00 | > 8.00 |
| C=CC(=O)N[C@H]1CC[C@@H](n2c(NC(=O)c3ccc(C(F)F)s3)nc3cc(CN[C@@H](C)C(C)(C)C)ccc32)C1 [Compound 62] | > 8.00 | 7.00 to 8.00 | < 7.00 | 7.00 to 8.00 |
| C=CC(=O)Nc1cccc(-n2c(NC(=O)c3ccc(C(F)F)s3)nc3cc(N(C)C(=O)[C@H](C)N4CCOCC4)ccc32)c1 [Compound 77] | > 8.00 | > 8.00 | 7.00 to 8.00 | > 8.00 |
| C=CC(=O)N[C@@H]1CCC[C@H](n2c(NC(=O)c3ccc(C(F)F)s3)nc3cc(CN[C@@H](C)C(C)(C)C)ccc32)C1 [Compound 81] | > 8.00 | 7.00 to 8.00 | 7.00 to 8.00 | > 8.00 |
